The structures appear in SMILES notation.

Usually IC50 stands for the midpoint of a concentration-inhibition curve.

In this test the target is T1, Type-2 angiotensin II receptor (Homo sapiens, UniProt P50052).
T1 sequence (P50052 whole entry): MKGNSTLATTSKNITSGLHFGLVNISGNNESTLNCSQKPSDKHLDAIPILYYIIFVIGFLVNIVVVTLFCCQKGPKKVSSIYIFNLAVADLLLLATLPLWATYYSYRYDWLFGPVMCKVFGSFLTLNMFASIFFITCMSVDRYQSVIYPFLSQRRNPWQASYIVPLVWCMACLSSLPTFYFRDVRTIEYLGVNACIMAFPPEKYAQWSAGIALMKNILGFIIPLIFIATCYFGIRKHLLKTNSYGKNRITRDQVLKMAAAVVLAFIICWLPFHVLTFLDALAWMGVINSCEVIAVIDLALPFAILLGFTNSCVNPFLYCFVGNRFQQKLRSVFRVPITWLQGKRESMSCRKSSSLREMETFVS
Briefly: AT2 Receptor Binding Assay: 120 μL membrane (5 mg protein/well) was incubated with 15 μL of [125I]-CGP42112A and 15 μL of compound at RT for 1.5 hrs. The binding reaction was stopped by rapid filtration through Unifilter GF/C plates (presoaked in 0.3% (v:v) BSA).Plate was washed three times with ice cold wash buffer.The filtration plates were dried at 37° C. overnight.50 μL of scintillation cocktail was added to each well.Radioactivity was determined using MicroBetaTriluxmicroplate scintillation counter.
In the case of `COc1ccc2c(c1OCC#Cc1ccc(F)cc1)C[C@@H](C(=O)NS(=O)(=O)N(C)C)N(C(=O)C(c1ccccc1)c1ccccc1)C2`, the IC50 worked out at 206 nM.

As for `COc1ccc2c(c1OCc1ccccc1)C[C@@H](C(=O)NS(=O)(=O)N(C)C)N(C(=O)C(c1ccccc1)c1ccccc1)C2`, the IC50 amounted to 10.9 nM.

Consider `COc1ccc2c(c1OCC#Cc1ccccc1)C[C@@H](C(=O)O)N(C(=O)C(c1ccccc1)c1ccccc1)C2`, for which the half-inhibitory concentration (IC50) came out at 96.2 nM.

Regarding `COc1ccc2c(c1OCC#Cc1ccccc1)C[C@@H](C(=O)NS(=O)(=O)N(C)C)N(C(=O)C(c1ccccc1)c1ccccc1)C2`, the half-maximal inhibitory concentration (IC50) stood at 79.5 nM.

`COc1ccc2c(c1OCC#Cc1ccc(F)cc1)C[C@@H](C(=O)O)N(C(=O)C(c1ccccc1)c1ccccc1)C2`: the half-maximal inhibitory concentration (IC50) came to 133 nM.

As to `O=C(O)[C@@H]1Cc2c(ccc(O)c2OCc2ccccc2)CN1C(=O)C(c1ccccc1)c1ccccc1`, the IC50 worked out at 33.5 nM.

The record behind these values is ChEMBL document CHEMBL5725527, “Heterocyclic compounds and methods of their use” (2017).
